According to patent US6759410B1, “3,4-dihydro-(1H)-quinazolin-2-ones and their use as CSBP/p38 kinase inhibitors” (SmithLine Beecham Corporation, priority 1999, dated 2004):

melting point: 236 to 238 °C
SMILES: Cc1ccccc1-c1cccc2c1CNC(=O)N2c1ccccc1 [Example 14, 1-Phenyl-5-(2-methylphenyl)-3,4-dihydro-(1H)-quinazolin-2-one]
